Experimental data as given in ChEMBL document CHEMBL1136991, “Novel potent BRAF inhibitors: toward 1 nM compounds through optimization of the central phenyl ring” (J Med Chem, 2009).

Experiments:
[1] = molecular target: MAP kinase-activated protein kinase 2 (Homo sapiens) (UniProt P49137); experiment: Inhibition of MAPKAP-K2 at 1 uM relative to control
[2] = molecular target: Maternal embryonic leucine zipper kinase (Homo sapiens) (UniProt Q14680); experiment: Inhibition of MELK at 1 uM relative to control
[3] = molecular target: T1, Inhibitor of nuclear factor kappa-B kinase subunit beta (Homo sapiens) (UniProt O14920); experiment: Inhibition of IKK-beta at 1 uM relative to control
T1 sequence (whole entry): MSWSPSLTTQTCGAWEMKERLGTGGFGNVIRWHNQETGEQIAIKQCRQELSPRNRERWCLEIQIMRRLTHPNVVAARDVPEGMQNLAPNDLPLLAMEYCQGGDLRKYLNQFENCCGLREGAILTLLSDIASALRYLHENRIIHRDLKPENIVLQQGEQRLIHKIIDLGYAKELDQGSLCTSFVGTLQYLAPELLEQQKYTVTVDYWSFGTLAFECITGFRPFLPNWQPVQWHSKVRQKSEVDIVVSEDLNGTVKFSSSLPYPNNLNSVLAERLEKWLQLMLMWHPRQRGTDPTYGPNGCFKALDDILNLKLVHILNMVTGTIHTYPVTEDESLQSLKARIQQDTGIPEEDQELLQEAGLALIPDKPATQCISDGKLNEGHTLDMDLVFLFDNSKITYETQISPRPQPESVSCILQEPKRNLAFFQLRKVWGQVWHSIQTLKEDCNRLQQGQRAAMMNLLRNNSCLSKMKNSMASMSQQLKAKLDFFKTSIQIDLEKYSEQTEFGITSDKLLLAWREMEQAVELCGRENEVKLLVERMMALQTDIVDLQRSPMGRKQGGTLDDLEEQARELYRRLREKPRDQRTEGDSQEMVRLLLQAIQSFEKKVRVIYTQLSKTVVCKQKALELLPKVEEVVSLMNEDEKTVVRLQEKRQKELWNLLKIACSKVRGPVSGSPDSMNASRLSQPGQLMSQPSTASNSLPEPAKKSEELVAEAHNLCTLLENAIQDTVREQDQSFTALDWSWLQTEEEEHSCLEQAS

[4] = molecular target: T2, Serine/threonine-protein kinase D1 (Homo sapiens) (UniProt Q15139); experiment: Inhibition of PKD1 at 1 uM relative to control
T2 sequence (whole entry): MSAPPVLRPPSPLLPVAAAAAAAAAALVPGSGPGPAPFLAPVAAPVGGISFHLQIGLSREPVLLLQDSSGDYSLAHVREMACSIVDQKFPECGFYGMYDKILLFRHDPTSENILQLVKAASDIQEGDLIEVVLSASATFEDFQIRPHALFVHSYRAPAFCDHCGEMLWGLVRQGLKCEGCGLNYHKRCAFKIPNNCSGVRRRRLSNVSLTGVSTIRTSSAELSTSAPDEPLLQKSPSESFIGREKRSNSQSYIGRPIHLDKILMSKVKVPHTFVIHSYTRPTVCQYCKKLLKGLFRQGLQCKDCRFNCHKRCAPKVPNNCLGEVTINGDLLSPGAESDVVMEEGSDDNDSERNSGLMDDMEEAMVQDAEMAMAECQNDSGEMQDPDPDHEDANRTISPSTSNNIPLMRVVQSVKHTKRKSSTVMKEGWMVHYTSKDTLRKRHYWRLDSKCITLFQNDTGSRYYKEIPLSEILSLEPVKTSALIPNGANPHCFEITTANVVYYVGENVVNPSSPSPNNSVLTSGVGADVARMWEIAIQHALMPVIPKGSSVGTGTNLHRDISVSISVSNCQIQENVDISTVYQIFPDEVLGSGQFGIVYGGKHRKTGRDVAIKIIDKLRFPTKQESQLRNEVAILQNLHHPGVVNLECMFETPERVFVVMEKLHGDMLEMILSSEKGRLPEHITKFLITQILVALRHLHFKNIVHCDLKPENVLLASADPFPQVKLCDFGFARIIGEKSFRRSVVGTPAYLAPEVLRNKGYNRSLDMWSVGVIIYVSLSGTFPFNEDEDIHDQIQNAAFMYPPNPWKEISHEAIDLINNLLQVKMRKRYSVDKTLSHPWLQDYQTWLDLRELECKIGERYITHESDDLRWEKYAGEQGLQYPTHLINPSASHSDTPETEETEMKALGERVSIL

[5] = Inhibition of CK2 at 1 uM relative to control
[6] = molecular target: Serine/threonine-protein kinase PAK 4 (Homo sapiens) (UniProt O96013); experiment: Inhibition of PAK4 at 1 uM relative to control
[7] = molecular target: T3, Dual specificity tyrosine-phosphorylation-regulated kinase 3 (Homo sapiens) (UniProt O43781); experiment: Inhibition of DYRK3 at 1 uM relative to control
T3 sequence (whole entry): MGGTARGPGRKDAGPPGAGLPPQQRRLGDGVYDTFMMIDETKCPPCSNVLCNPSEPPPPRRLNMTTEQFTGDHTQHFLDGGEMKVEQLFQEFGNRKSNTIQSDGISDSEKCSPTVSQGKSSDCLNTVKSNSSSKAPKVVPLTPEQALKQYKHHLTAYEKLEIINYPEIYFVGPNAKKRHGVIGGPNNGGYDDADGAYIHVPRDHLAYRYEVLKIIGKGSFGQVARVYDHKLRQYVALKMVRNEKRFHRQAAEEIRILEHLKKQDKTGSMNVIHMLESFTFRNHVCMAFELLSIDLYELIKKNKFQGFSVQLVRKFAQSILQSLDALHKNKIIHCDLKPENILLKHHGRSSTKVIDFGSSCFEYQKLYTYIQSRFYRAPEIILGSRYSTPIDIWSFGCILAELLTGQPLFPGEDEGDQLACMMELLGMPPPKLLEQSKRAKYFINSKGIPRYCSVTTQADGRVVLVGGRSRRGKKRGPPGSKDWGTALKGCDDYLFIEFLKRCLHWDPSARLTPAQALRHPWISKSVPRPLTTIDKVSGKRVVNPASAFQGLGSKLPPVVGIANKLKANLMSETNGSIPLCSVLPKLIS

[8] = Inhibition of CK1 at 1 uM relative to control
[9] = molecular target: T4, Aurora kinase C (Homo sapiens) (UniProt Q9UQB9); experiment: Inhibition of Aurora C at 1 uM relative to control
T4 sequence (whole entry): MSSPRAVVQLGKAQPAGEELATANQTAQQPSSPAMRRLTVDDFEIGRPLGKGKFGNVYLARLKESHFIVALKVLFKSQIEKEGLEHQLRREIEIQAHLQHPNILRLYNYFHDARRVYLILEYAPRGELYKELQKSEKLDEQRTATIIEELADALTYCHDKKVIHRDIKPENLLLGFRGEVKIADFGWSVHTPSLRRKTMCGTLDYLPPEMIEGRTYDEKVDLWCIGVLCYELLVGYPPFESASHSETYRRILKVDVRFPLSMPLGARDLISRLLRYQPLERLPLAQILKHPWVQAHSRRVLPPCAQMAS

Sequence of Maternal embryonic leucine zipper kinase (Homo sapiens) (Q14680 whole entry, looked up): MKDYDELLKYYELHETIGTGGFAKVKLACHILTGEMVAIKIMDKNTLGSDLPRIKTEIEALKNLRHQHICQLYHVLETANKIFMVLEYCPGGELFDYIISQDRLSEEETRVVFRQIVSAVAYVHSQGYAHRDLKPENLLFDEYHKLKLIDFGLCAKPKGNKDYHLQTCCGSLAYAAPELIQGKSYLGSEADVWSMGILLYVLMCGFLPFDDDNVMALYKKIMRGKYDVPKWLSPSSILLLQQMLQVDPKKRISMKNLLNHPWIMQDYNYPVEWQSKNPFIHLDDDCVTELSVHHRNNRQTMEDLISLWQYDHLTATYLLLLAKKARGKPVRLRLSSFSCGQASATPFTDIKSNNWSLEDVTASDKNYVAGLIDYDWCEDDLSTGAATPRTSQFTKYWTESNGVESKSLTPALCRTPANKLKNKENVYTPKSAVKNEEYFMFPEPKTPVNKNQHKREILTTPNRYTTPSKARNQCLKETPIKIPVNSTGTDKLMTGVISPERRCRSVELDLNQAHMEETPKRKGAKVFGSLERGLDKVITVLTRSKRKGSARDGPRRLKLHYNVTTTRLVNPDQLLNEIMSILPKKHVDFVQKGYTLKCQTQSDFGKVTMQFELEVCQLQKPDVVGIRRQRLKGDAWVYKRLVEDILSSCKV
Sequence of Serine/threonine-protein kinase PAK 4 (Homo sapiens) (O96013 whole entry, looked up): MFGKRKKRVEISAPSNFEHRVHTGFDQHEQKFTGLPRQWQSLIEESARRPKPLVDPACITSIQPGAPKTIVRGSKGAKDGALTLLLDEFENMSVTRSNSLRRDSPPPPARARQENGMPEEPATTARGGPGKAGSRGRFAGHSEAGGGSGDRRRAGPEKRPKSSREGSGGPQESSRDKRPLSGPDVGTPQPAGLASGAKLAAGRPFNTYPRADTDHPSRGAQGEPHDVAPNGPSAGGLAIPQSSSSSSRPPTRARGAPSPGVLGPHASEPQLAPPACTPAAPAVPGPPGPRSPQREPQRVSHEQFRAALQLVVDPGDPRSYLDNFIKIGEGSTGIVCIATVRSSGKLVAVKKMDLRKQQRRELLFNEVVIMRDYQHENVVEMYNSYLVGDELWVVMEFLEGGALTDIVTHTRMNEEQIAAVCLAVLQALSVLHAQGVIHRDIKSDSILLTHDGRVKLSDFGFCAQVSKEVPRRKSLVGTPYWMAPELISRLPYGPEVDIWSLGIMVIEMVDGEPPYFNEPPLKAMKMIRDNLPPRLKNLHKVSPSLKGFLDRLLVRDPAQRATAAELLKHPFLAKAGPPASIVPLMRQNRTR
Sequence of MAP kinase-activated protein kinase 2 (Homo sapiens) (P49137 whole entry, looked up): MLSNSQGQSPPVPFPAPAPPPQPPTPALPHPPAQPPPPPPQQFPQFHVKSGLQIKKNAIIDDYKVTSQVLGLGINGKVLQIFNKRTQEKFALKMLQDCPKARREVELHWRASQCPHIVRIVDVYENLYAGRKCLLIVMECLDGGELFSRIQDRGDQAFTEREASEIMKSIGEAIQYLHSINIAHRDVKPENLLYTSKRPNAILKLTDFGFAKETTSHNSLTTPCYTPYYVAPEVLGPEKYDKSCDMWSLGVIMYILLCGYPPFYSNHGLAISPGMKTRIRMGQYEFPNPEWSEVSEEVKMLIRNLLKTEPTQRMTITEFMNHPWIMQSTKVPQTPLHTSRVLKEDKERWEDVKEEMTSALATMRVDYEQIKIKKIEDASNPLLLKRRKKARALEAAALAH

| residual activity [1] [%] | residual activity [2] [%] | residual activity [3] [%] | residual activity [4] [%] | residual activity [5] [%] | residual activity [6] [%] | residual activity [7] [%] | residual activity [8] [%] | residual activity [9] [%] | Compound |
| --- | --- | --- | --- | --- | --- | --- | --- | --- | --- |
| 100 | 100 | 100 | 75 | 100 | 75 | 75 | 75 | 50 | CSc1cc(Oc2ccnc3[nH]c(=O)[nH]c23)ccc1NC(=O)Nc1cccc(C(F)(F)F)c1 |
| 100 | 100 | 100 | 75 | 100 | 75 | 100 | 100 | < 25 | O=C(Nc1cc(C(F)(F)F)ccc1F)Nc1ccc(Oc2ccnc3[nH]c(=O)[nH]c23)c2ccccc12 |
| 75 | 75 | 75 | 75 | 100 | 75 | 75 | 75 | 75 | CC(C)(C)c1cccc(NC(=O)Nc2ccc(Oc3ccnc4[nH]c(=O)[nH]c34)c3ccccc23)c1 |
